The values that follow come from ChEMBL document CHEMBL1151270, “Phenolic and triterpene glycosides from the stems of Ilex litseaefolia” (J Nat Prod, 2005).

As usually defined, the IC50 is the point on the concentration scale where inhibition reaches its midpoint. Read a low IC50 as greater potency.

≈ marks a conversion by molar mass, not a printed value.

The assay is described as follows: Inhibition of lipase.

With `COc1cc(C(=O)OCc2ccc(O[C@@H]3O[C@H](COC(C)=O)[C@@H](O)[C@H](O)[C@H]3O)c(O)c2)ccc1O` [LITSEAEFOLOSIDE A], the IC50 is more than 100 µg/mL.
The same measure for `COc1cc(C(=O)OCc2ccc(O[C@@H]3O[C@H](COC(=O)/C=C/c4ccc(O)c(O)c4)[C@@H](O)[C@H](O)[C@H]3O)c(O)c2)ccc1O` [LITSEAEFOLOSIDE C]: 0.31 µg/mL (≈ 0.504 µM); for `COc1cc(C(=O)OCc2ccc(O[C@@H]3O[C@H](CO)[C@@H](O)[C@H](O)[C@H]3O)c(O)c2)ccc1O` [VANILLOYL CALLERYANIN]: more than 100 µg/mL.
